Experimental data as given in patent US6096784A, “Inhibitors of oleamide hydrolase” (The Scripps Research Institute, priority 1999, dated 2000).
Values after ≈ are worked out from the molar mass of the structure shown. Like-named read-outs stand apart in the source and are kept apart here. Values belong to the compound of their own block, whether it stands above or below them.

Key:
[1] = target: T1, oleamide hydrolase (Rattus norvegicus, UniProt P97612); assay: Oleamide hydrolase inhibition, ammonia production measured with ion-selective electrode; type: biochemical
T1 construct: The enzyme was used as a crude, heterogenous, membrane-containing preparation from rat liver; from tissue; host or cells: rat liver plasma membrane preparation (12-14 rat livers), crude
T1 sequence (P97612 1-579): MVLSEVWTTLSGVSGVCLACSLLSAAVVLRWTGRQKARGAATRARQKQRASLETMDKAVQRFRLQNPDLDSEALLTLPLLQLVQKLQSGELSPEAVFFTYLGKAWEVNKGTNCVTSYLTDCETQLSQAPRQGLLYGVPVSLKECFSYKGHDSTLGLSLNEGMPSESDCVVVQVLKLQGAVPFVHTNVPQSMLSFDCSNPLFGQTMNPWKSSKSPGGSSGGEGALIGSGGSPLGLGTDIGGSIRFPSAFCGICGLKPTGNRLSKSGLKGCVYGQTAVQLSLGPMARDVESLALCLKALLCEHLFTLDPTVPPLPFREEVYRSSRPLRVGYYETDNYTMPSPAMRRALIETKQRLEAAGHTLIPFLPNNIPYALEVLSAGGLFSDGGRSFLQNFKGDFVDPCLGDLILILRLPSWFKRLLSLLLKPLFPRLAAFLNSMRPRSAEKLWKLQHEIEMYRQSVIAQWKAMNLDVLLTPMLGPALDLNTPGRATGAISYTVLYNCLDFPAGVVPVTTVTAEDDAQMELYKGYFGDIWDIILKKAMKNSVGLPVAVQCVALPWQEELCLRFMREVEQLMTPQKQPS
Description: Error values presented with Ki s should be considered goodness-of-fit estimates derived from propagation of errors treatment of data. They are not necessarily an indication of reproducibility.
Twelve to fourteen rat livers were sectioned and placed in 300 mL of 1 mM NaHCO3. The solution of diced liver was strained and washed with additional 300 mL of 1 mM NaHCO3. Any conspicuous connective tissue was removed. The liver was transferred to a fresh 800 mL of 1 mM NaHCO3, stirred and then transferred in 400 mL aliquots to a blender. Blended liver aliquots were combined and filtered through 8 layers of cheesecloth. This was diluted to 1.0 L with 1 μM NaHCO3 and centrifuged at 6000 rpm for 20 minutes at 40° C. (Beckman JA-17 rotor). The supernatant was decanted, the pellets resuspended in 1 mM NaHCO3, combined and dounce homogenized. Centrifugation, decantation and resuspension/homogenization were repeated to give a final volume of approximately 90 mL. The homogenate was added to 2 volume equivalents of 67% sucrose, mixed thoroughly, and transferred to ultracentrifuge compatible tubes. The tubes were topped with 30% sucrose and spun at 27,000 for 2 hours (SW-28 rotor). The middle yellow band was removed from the sucrose gradient, combined, resuspended in 1 mM NaHCO3, and dounce homogenized. The sample was further centrifuged at 17,000 rpm for 45 minutes at 4° C. (JA-17 rotor). The supernatant was removed, the pellets resuspended in 100 mM Na2 CO3, dounce homogenized and left on ice for 30 minutes. The solution was centrifuged at 27,000 rpm for 1 hour (SW-28 rotor), the supernatant was decanted and the pellet resuspended in 15 mL of 50 mM Tris HCl, pH 7.4 with 1 mM EDTA, and homogenized with a dounce homogenizer. This material was divided into multiple aliquots and frozen at -78° C. until use. Each enzyme sample was frozen once only.

[2] = Solubility of oleamide in assay buffer; type: physicochemical; conditions: buffer with 5% dmso, organic solvent or mixture; buffer containing 5% DMSO; read-out: solubility limit
[3] = Ammonia production from oleamide in the absence of enzyme; type: physicochemical; conditions: 100 μM oleamide, pH 10.0
Description: The potency of the these compounds against oleamide hydrolysis was evaluated using an ion-selective ammonia electrode (ATI/Orion) to directly measure ammonia formation as the product of the reaction. All Ki s except for that of oleic acid were determined by the Dixon method. (X intercepts of weighted linear fits of [I] versus 1/Rate plots at a constant substrate concentration were converted to Ki 's using the formula Ki =-Xint /[1+[S]/Km ].) The oleic acid Ki was obtained from a non-linear weighted least-squares fit of rate versus substrate and inhibitor concentrations. The assays were done with constant stirring in 10 mL 50 mM CAPS buffer (Sigma) adjusted to pH 10.0, the pH at which the rate of enzymatically catalyzed oleamide hydrolysis is maximal. In all cases which involved Dixon analysis, the substrate concentration was 100 μM. The oleic acid Ki was determined over a range of substrate concentrations from 10 to 100 μM. Substrate and inhibitors were dissolved in DMSO prior to addition to the 50 mM CAPS buffer, generating a final DMSO assay concentration of 1.67%. […] The enzyme concentration was adjusted to produce a rate of roughly 0.2 μM/min in the absence of inhibitor and the rate of ammonia production observed over a period of 7 to 10 minutes.
The enzyme was used as a crude, heterogenous, membrane-containing preparation from rat liver. […]

[4] = target: T1, oleamide hydrolase; assay: pH-rate dependence of oleamide hydrolase cleavage of oleamide; type: biochemical; conditions: cleavage of compound 1
Description: FIG. 12 illustrates the equations used to determine the pH-Rate dependence. The rate was obtained from the linear portion of the curve which was fit using a standard least squares procedure. These rates were replotted against pH and fit with the shown equation by a weighted non-linear least-squares method.
Crude enzyme was added to a solution of 200 μM oleamide (approximately the solubility limit) 1 in 20 mL buffer at the appropriate pH, containing 5% DMSO. (Concentrations of up to 20% DMSO had only minimal effect on enzyme rates.) A 50 mM sodium citrate/Bis-tris buffer was used for data points in the pH 4-9 range. A 50 mM Bis-tris/CAPS was used for data points in the 8-11 range. At pH 12, the solution was assumed to be self-buffering. At periodic time intervals, 1 mL aliquots were removed and diluted with 9 mL pH 14 buffer. Ammonia concentrations were measured with an ion-selective ammonia electrode (Orion) connected to a 720 A meter (Orion), calibrated against known standards. The rate was obtained from the linear portion of the curve which was fit using a standard least-squares procedure. […]

[5] = target: T1, oleamide hydrolase; assay: Determination of Km for oleamide (Lineweaver-Burke plot); type: biochemical
Description: The potency of the inhibitors was determined using an ion selective electrode to measure the production of ammonia as the result of the hydrolysis of 100 μM oleamide (~20 Km) by a membrane bound preparation of oleamide hydrolase. […] Inhibition constants were determined by the Dixon method (FIGS. 4-6).
The enzyme was used as a crude, heterogenous, membrane-containing preparation from rat liver. […] Within solubility limits, all inhibitors achieved 100% inhibition of activity at concentrations of greater than 100 Ki. No detectable activity was found in the absence of added oleamide.
The Km for oleamide was determined as the average Km obtained from four independent assays. Each independent Km was obtained from weighted linear fit of data in a Lineweaver-Burke plot. A fifth concurring Km was obtained as a result of the determination of oleic acid inhibition by non-linear methods. The rate data was fit with the standard Michaelis-Menten kinetic equation.

[6] = system: animals; conditions: cited from earlier work; for somnolescent activity: in vivo
[7] = Extent of hydration / hemiacetal formation of inhibitor carbonyl by 1H and 13C NMR; type: physicochemical; conditions: for conversion to hemiacetal: CD3OD, NMR
Excerpt: FIG. 2 illustrates ^1 H NMR and ^13 C NMR data to establish and quantitate the addition of CD3 OD or D2 O to the electrophilic carbonyl in CD3 OD or acetone-d6. […] Expected trends follow 11>12>8>6≥4.

[8] = system: rat; assay: Sleep monitoring in rat after intra-abdominal injection, electrophysiological methods; type: in vivo; conditions: intraperitoneal, mineral oil, four hours
Description: Another aspect of the invention is directed to a method for inducing sleep within an oleamide sensitive animal by administrating an effective dose of an […] of oleamide hydrolase. A preferred […] is compound 6. Compound 6 was dissolved in mineral oil and an effective dose was injected into the peritoneum of a rat by intra-abdominal injection. Sleep was monitored for the following four hours. Total sleep time was determined by standard electrophysiological methods. An increase of deep slow-wave sleep (SWS) with a reduction of the waking period was observed.

[9] = pH 10.0, 100 μM oleamide, Dixon method, read-out: Ki
[10] = pH 10.0, 100 μM oleamide, Dixon method, read-out: inhibition constant (Ki,app)

conversion to hemiacetal [7]: 47%
SMILES: CCCCCCCC/C=C\CCCCCCCC=O [Compound 4]

relative binding, C-2 versus C-1 position of electrophilic carbonyl (aldehydes) ([1]; 5 versus 4): five times more tightly than 4
SMILES: CCCCCCCC/C=C\CCCCCCC=O [Compound 5, 8Z-Heptadecenal]

conversion to hemiacetal [7]: 48%
SMILES: CCCCCCCC/C=C\CCCCCCC(=O)C(N)=O [Compound 6, 2-Oxo-9Z-octadecenamide]
increase of deep slow-wave sleep (SWS) [8]: approximately 30%
reduction of waking [8]: a similar percent of reduction of waking

relative binding (in words) ([1]; comparison between inhibitors): binds more tightly
SMILES: CCCCCCCC/C=C\CCCCCCCC(=O)C(N)=O [Compound 7, 2-Oxo-10Z-nonadecenamide]

increase in binding affinity, C-2 versus C-1 position of electrophilic carbonyl (α-keto esters) ([1]; 8 versus 9): 6 fold
relative binding (in words) ([1]; comparison between inhibitors): bind equally tightly
Ki [1, 10]: 1.4 nM
conversion to hemiacetal [7]: 75%
SMILES: CCCCCCCC/C=C\CCCCCCC(=O)C(=O)OCC [Compound 8, Ethyl 2-Oxo-9Z-octadecenoate]

Ki [1, 10]: 150 nM
hydration of carbonyl (in words) [7]: fully hydrated
conversion to hemiacetal [7]: 100%
SMILES: CCCCCCCCCCCCCCCC(=O)C(O)(O)C(=O)OC(C)(C)C [Compound 11, tert-Butyl 3-Oxo-2,2-dihydroxyoctadecanoate]

hydration of carbonyl (in words) [7]: almost entirely as hydrates
SMILES: CCCCCCCC/C=C\CCCCCCC(=O)C(F)(F)F [Compound 13, 1,1,1-Trifluoro-9Z-octadecen-2-one]

hydration of carbonyl (in words) [7]: almost entirely as hydrates
SMILES: CCCCCCCCCCCCCCCCCC(=O)C(F)(F)F [Compound 15]

inhibition of oleamide hydrolase (in words) [1]: poor inhibition
SMILES: CCCCCCCC/C=C\CCCCCCCC(OC)OC [Compound 16]

inhibition of oleamide hydrolase (in words) [1]: poor inhibition
SMILES: CCCCCCCC/C=C\CCCCCCC(O)C(N)=O (stereo not drawn) [Compound 17, 2-Hydroxy-9Z-octadecenamide]

inhibition of oleamide hydrolase (in words) [1]: poor inhibition
SMILES: CCCCCCCC/C=C\CCCCCCC(O)C(=O)O (stereo not drawn) [Compound 18]

mode of binding (in words) [1]: appeared to bind reversibly
Ki [1, 9]: 300 nM
SMILES: CCCCCCCC/C=C\CCCCCCC(Cl)C(=O)O (stereo not drawn) [Compound 20, 2-Chlorcoleic acid]

Ki [1, 9]: 18000 nM
SMILES: CCCCCCCC/C=C\CCCCCCCC(=O)C=[N+]=[N-] [Compound 21, 1-Diazo-10Z-nonadecen-2-one]

The next lines start with the compound.

SMILES: c1cc(SSc2ccncc2)ccn1 [4,4'-dithiodipyridine disulfide, reference compound]
inhibition of oleamide hydrolase (in words) [1]: can be inhibited

SMILES: CCCCCCCC/C=C\CCCCCCCC(N)=O [Compound 1, cis-9-octadecenamide]
solubility [2]: ~200 µM (≈ 56.3 µg/mL)
rate of ammonia production in the absence of enzyme [3]: only a very minimal rate of ammonia production
pH of rate maximum [4]: 10.0
dependence of reaction rate on substrate concentration ([5]; 30-100 μM): essentially a zero order dependence on substrate concentration
Km ([5]; average of four independent assays): 5 ± 2 µM
quantity inducing physiological sleep ([6]; injected intravascularly): nanomolar quantities

SMILES: CCCCCCCC/C=C\CCCCCCCC(=O)CCl [Compound 3, 1-Chloro-10Z-nonadecen-2-one]
time dependence of inhibitory activity ([1]; first fifteen minutes of incubation, up to solubility limits): time independent but moderate inhibition
Ki [1, 9]: 700 nM

SMILES: CCCCCCCC/C=C\CCCCCCCC(=O)C(F)(F)F [Compound 12, 1,1,1-Trifluoro-10Z-nonadecen-2-one]
Ki [1]: 1.2 nM
preference for cis double bond at 9 position [1]: approximately an order of magnitude more tightly than the trans double bond containing 14 or the saturated derivative 15
relative binding (in words) [1]: bind equally tightly
type of inhibition (Lineweaver-Burke plot) [1]: competitive
hydration of carbonyl (in words) [7]: almost entirely as hydrates
conversion to hemiacetal [7]: 100%

SMILES: CCCCCCCC/C=C/CCCCCCCC(=O)C(F)(F)F [Compound 14, 1,1,1-Trifluoro-10E-nonadecen-2-one]
hydration of carbonyl (in words) [7]: almost entirely as hydrates

SMILES: O=C(O)CN(CCN(CC(=O)O)CC(=O)O)CC(=O)O [EDTA, reference compound]
inhibition of oleamide hydrolase (in words) [1]: not by 1 mM EDTA

SMILES: [Cl][Hg][Cl] [HgCl2, reference compound]
inhibition of oleamide hydrolase (in words) [1]: can be inhibited
IC50 ([1]; HgCl2): 700 nM
Ki ([1]; HgCl2, read-out: Ki, app): 37 nM

SMILES: N [ammonia]
somnolescent activity [6]: neither of which demonstrate somnolescent activity

SMILES: CCCCCCCC/C=C\CCCCCCCC(=O)O [oleic acid, cis-9-octadecenoic acid, reference compound]
Ki ([1]; pH 10.0, non-linear weighted least-squares fit, 10 to 100 μM oleamide, read-out: Ki): 6000 nM
somnolescent activity [6]: neither of which demonstrate somnolescent activity

SMILES: O=S(=O)(F)Cc1ccccc1 [phenylmethylsulfonyl fluoride, reference compound]
inhibition of oleamide hydrolase (in words) [1]: can be inhibited
